# In ChEMBL document CHEMBL6182893, “Discovery of non-electrophilic TRPA1 channel agonists with anti-nociceptive effects via rapid current desensitization” (Eur J Med Chem, 2025):
# Activity calls are given as the source filed them.
# Key:
# [1] = target: T1, Transient receptor potential cation channel subfamily A member 1 (Homo sapiens, UniProt O75762); assay: Agonist activity at human TRPA1 expressed in HEK293T cells assessed as increase in channel opening by measuring open probability at 30 uM in presence of A-967079 by single-channel recordings; format: cell-based; conditions: filed as agonist
# T1 sequence (O75762 whole entry): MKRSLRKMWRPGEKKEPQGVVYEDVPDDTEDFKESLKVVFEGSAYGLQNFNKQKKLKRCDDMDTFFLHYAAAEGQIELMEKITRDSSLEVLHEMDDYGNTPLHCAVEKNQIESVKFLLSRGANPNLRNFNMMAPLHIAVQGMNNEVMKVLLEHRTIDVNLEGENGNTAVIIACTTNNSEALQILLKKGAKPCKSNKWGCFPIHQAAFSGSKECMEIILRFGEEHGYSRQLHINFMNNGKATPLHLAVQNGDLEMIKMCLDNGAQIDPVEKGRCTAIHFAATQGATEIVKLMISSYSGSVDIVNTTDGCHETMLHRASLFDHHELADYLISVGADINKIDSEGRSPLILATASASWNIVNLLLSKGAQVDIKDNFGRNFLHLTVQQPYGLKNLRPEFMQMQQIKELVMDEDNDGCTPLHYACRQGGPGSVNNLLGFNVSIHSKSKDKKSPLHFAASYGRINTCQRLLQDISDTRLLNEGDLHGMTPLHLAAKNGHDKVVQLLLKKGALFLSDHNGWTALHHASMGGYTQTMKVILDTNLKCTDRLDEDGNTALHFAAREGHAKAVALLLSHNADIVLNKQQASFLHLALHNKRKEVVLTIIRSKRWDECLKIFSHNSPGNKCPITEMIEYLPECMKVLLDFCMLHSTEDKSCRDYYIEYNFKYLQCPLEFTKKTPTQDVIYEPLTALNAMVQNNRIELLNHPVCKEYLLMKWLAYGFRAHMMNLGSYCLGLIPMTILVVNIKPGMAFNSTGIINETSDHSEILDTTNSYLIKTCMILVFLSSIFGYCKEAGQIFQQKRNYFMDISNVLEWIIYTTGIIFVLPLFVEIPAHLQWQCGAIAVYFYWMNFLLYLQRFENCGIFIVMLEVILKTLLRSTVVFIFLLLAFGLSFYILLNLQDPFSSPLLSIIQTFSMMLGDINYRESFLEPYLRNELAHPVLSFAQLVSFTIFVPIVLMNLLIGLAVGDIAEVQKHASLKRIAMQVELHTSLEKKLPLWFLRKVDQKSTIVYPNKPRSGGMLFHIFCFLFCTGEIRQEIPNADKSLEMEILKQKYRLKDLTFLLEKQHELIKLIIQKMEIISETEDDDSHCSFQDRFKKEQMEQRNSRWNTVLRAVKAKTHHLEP
# [2] = target: T1, Transient receptor potential cation channel subfamily A member 1; assay: Agonist activity at human TRPA1 expressed in HEK293T cells assessed as increase in channel opening by measuring single channel conductance at 30 uM in presence of A-967079 by single-channel recordings; format: cell-based; conditions: filed as agonist
# [3] = Toxicity in wildtype C57BL/6J mouse assessed as irritation at 1 %, SC administered via hind paw and measured within 45 mins; conditions: in vivo, 0.75 h
# Mus musculus [4] = assay: Antinociceptive activity in wildtype female C57BL/6J mouse model of thermal pain assessed as paw withdrawal latency time at 20 mg/kg, po preadministered for 30 mins followed by exposure to 55 degreeC and measured after 60 mins by hot plate test (reference value: 13.65 +/- 0.69 sec); format: functional; conditions: time 90 min, 1.5 h
# Mus musculus [5] = assay: Antinociceptive activity in wildtype female C57BL/6J mouse model of thermal pain assessed as paw withdrawal latency time at 20 mg/kg, po preadministered for 30 mins followed by exposure to 55 degreeC and measured after 30 mins by hot plate test (reference value: 11.83 +/- 1.25 sec); format: functional; conditions: time 60 min, 1 h
# Mus musculus [6] = assay: Antinociceptive activity in wildtype female C57BL/6J mouse model of thermal pain assessed as paw withdrawal latency time at 20 mg/kg, po preadministered for 30 mins followed by exposure to 55 degreeC and measured after 4 hrs by hot plate test (reference value: 17.41 +/- 1.18 sec); format: functional
# Mus musculus [7] = assay: Antinociceptive activity in CFA-induced male C57BL/6J mouse model of inflammatory pain assessed as paw withdrawal mechanical threshold at 20 mg/kg, po challenged with CFA for 24 hrs followed by compound administration for 30 mins and measured after 1 hrs (reference value: 0.22 +/- 0.03 g); format: functional; conditions: time 1.5 hrs
# Mus musculus [8] = assay: Antinociceptive activity in acetic-acid induced TRPA1 knock-out mouse model of visceral pain assessed as reduction in abdominal writhing at 20 mg/kg, po preadministered for 30 mins followed by acetic acid challenge and measured after 15 mins; format: functional, organism-based
# Mus musculus [9] = assay: Antinociceptive activity in CFA-induced male C57BL/6J mouse model of inflammatory pain assessed as paw withdrawal mechanical threshold at 20 mg/kg, po challenged with CFA for 24 hrs followed by compound administration for 30 mins and measured after 0.5 hrs (reference value: 0.39 +/- 0.05 g); format: functional; conditions: time 1 hrs
# Mus musculus [10] = assay: Antinociceptive activity in CFA-induced male C57BL/6J mouse model of inflammatory pain assessed as paw withdrawal mechanical threshold at 20 mg/kg, po challenged with CFA for 24 hrs followed by compound administration for 30 mins and measured immediately (reference value: 0.47 +/ 0.14 g); format: functional; conditions: 0.5 h
# Mus musculus [11] = assay: Antinociceptive activity in CFA-induced male C57BL/6J mouse model of inflammatory pain assessed as paw withdrawal mechanical threshold at 20 mg/kg, po challenged with CFA for 24 hrs followed by compound administration for 30 mins and measured after 4 hrs (reference value: 0.47 +/- 0.10 g); format: functional
# Mus musculus [12] = assay: Antinociceptive activity in acetic-acid induced wildtype male C57BL/6J mouse model of visceral pain assessed as reduction in abdominal writhing at 20 mg/kg, po preadministered for 30 mins followed by acetic acid challenge and measured after 15 mins; format: functional, organism-based
# Mus musculus [13] = assay: Effect on mechanical allodynia in male C57BL/6J mouse assessed as paw withdrawal mechanical threshold at 20 mg/kg, po administered for 30 mins (reference value: 1.77 +/- 0.21 g); format: functional; conditions: 0.5 h
# Mus musculus [14] = assay: Antinociceptive activity in wildtype female C57BL/6J mouse model of thermal pain assessed as paw withdrawal latency time at 20 mg/kg, po preadministered for 30 mins followed by exposure to 55 degreeC and measured after 120 mins by hot plate test (reference value: 15.65 +/- 1.22 sec); format: functional; conditions: time 150 min
# Mus musculus [15] = assay: Antinociceptive activity in wildtype female C57BL/6J mouse model of thermal pain assessed as paw withdrawal latency time at 20 mg/kg, po preadministered for 30 mins followed by exposure to 55 degreeC and measured immediately by hot plate test (reference value: 16.65 +/- 1.02 sec); format: functional; conditions: 0.5 h
# Mus musculus [16] = assay: Antinociceptive activity in CFA-induced male C57BL/6J mouse model of inflammatory pain assessed as paw withdrawal mechanical threshold at 20 mg/kg, po challenged with CFA for 24 hrs followed by compound administration for 30 mins and measured after 2 hrs (reference value: 0.55 +/- 0.13 g); format: functional
# [17] = target: Transient receptor potential cation channel subfamily A member 1 (Mus musculus, UniProt Q8BLA8); assay: Agonist activity at mouse TRPA1 expressed in HEK293T cells by whole cell patch clamp recordings; format: cell-based
# Transient receptor potential cation channel subfamily A member 1 (Mus musculus, UniProt Q8BLA8), sequence (Q8BLA8 whole entry): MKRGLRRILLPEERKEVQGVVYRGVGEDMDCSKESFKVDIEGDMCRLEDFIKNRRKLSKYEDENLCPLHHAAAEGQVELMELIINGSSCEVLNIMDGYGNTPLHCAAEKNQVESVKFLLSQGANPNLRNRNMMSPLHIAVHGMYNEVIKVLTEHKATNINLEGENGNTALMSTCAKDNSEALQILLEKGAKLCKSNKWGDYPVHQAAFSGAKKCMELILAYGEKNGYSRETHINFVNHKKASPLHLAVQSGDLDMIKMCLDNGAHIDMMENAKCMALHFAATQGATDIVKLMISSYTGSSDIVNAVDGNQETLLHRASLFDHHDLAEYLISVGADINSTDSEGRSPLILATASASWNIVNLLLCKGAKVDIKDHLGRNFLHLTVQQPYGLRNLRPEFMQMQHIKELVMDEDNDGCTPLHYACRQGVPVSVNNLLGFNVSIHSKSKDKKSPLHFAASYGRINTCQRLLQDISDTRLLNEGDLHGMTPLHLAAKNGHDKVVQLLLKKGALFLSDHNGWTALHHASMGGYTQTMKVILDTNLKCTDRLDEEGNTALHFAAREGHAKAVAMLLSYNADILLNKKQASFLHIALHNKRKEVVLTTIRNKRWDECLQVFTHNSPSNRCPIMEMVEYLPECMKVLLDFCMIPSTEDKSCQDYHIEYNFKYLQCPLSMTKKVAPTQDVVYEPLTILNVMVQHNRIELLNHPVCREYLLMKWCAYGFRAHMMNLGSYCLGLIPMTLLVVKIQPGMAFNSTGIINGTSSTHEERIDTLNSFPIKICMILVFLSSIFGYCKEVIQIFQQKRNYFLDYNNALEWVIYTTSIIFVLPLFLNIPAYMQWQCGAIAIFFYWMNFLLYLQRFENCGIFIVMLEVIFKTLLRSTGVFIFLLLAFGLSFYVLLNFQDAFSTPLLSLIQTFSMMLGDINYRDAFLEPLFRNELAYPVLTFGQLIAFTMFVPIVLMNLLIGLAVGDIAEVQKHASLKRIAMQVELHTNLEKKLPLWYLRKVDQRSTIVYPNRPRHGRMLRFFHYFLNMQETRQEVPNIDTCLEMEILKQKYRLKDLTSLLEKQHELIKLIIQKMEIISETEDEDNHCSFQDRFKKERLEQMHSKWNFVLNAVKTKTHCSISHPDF
# [18] = Toxicity in wildtype C57BL/6J mouse assessed as irritation at 0.3 %, SC administered via hind paw and measured within 45 mins; conditions: in vivo, 0.75 h
# [19] = target: T1, Transient receptor potential cation channel subfamily A member 1; assay: Agonist activity at human TRPA1 expressed in HEK293T cells by whole cell patch clamp recordings; format: cell-based
# Mus musculus [20] = assay: Antinociceptive activity in TRPA1 knock-out mouse model of thermal pain assessed as increase in paw lick latency at 20 mg/kg, po preadministered for 30 mins followed by exposure to 55 degreeC and measured up to 4 hrs by hot plate test; format: functional, organism-based
# [21] = Selectivity ratio of EC50 for agonist activity at mouse TRPA1 expressed in HEK293T cells to EC50 for agonist activity at human TRPA1 expressed in HEK293T cells; format: cell-based
# [22] = target: T1, Transient receptor potential cation channel subfamily A member 1; assay: Irreversible binding affinity to TRPA1 (unknown origin); conditions: filed as agonist
# [23] = target: Transient receptor potential cation channel subfamily A member 1 (Mus musculus) (UniProt Q8BLA8); assay: Desensitization of mouse TRPA1 expressed in HEK293T cells assessed as time constant (tau) at 200 uM in presence of Ca2+ containing solution by whole cell patch clamp recording; format: cell-based; conditions: filed as agonist
# Transient receptor potential cation channel subfamily A member 1 (Mus musculus), sequence (Q8BLA8 whole entry): as above
compound,measurement,setting,value
C=CCN=C=S [ALLYL ISOTHIOCYANATE],Activity,[1],0.15
same,Activity,[2],102 pS
same,Activity,[3],Toxic
CC(C)Cc1ccc(C(C)C(=O)O)cc1 (stereo not given) [IBUPROFEN],Time,Mus musculus [4],31.26 s
same,Time,Mus musculus [5],20.73 s
same,Time,Mus musculus [6],14.03 s
same,Activity,Mus musculus [7],1.32 g
same,Activity,Mus musculus [8],Active
same,Activity,Mus musculus [9],1.2 g
same,Activity,Mus musculus [10],0.22 g
same,Activity,Mus musculus [11],0.42 g
same,Activity,Mus musculus [12],Active
same,Activity,Mus musculus [13],1.84 g
same,Time,Mus musculus [14],15.46 s
same,Time,Mus musculus [15],15.72 s
same,Activity,Mus musculus [16],0.69 g
COCCCN(C(=O)CCl)c1nc(-c2ccc(OC)cc2)cs1,EC50,[17],5.26 µM
same,Activity,[18],Non-toxic
same,EC50,[19],6.48 nM
same,Activity,[3],Toxic
same,Activity,Mus musculus [20],Active
same,Ratio EC50,[21],1000
COCCCNc1cc(-c2ccc(C)cc2)cs1,Activity,[22],Active
S=C=NCc1ccccc1,TIME,[23],0.0179 h
CCCCCNc1nc(-c2ccc(O)cc2)cs1,Activity,[22],Active
